Test results as given in patent US20250154467A1, “CREATION OF VASCULARIZED BIOLOGICAL STRUCTURES” (The Board of Trustees of the Leland Stanford Junior …, priority 2022, published 2025).
“Also recorded” adds a separate entry of the source. Read-outs that look alike come from different tables or passages of the source.

What was measured:
[1] = test system: hESC-3R colony; test: 3D cVO creation in 96-well plate with a range of CHIR; format: cell-based, human; details: 3D cVOs, day 14, CHIR 6.0-8.5 uM
Method: For 3D cVO creation, two methods were used. In the first method, stencils with single 2 mm center holes were placed in 24-well plates with Softwell Easy Coat hydrogels with a custom stiffness of 16 […]) and hESC-3R cells were micropatterned as described above. In the second method, to increase throughput and eliminate using stencils, each well of a black 96-well plate ([…]-32EA, Sigma-Aldrich) was freshly coated with a central, 2 uL drop of Matrigel (1:400 dilution) and was then seeded with 125,000 hESC-3R cells. Cells were allowed to attach and grow for 2-4 days forming a single, homogenous, round colony in the center of each well. The same differentiation protocol for 2D cVOs was then used to create 3D cVOs from days 0-14, using a range of CHIR from 6.0-8.5 μM.

[2] = test system: RUES-GLR hESCs; test: Germ layer formation under different CHIR concentrations; format: cell-based, human; details: CHIR 4 uM added at day 0, day 6
[3] = test system: hESC-3R micropatterns; test: cVO differentiation screening, 34 conditions, CM/EC/SMC total fluorescence area; format: cell-based, human
Source text: Cardiac Vascularized Organoid (cVO) Differentiation. See FIG. 3C, FIG. 10H-I, and Table 1 for an overview of our thirty-four (34) cardiovascular (CV) differentiation screening conditions to produce cVOs. The Control groups utilized only CHIR, FGF2, and IWR. To begin, hPSCs suspended in single cells were transferred to Matrigel-coated non-micropatterned or micropatterned surfaces as described above and differentiated in RPMI-1640 media (61870, Thermo Fisher Scientific) supplemented with B27 without insulin (A1895601, Thermo Fisher Scientific) (RB-I). The CV differentiation was based on the baseline differentiation described previously to promote CM differentiation and contained several additional small molecules and growth factors to promote simultaneous endothelial and smooth muscle cell co-differentiation. On Day 0, for primarily mesoderm induction, basal medium was supplemented with 4 or 5 μM CHIR99021 (CHIR) (S2924, Selleck Chemicals) and 5 ng/ml FGF-2 (FGF2) (100-18B, PeproTech). On Day 3, for CM induction, 5 uM IWR-1 (IWR) (S7086, Selleck Chemicals) was added. On Days 5-16, to simultaneously induce endothelial cell vasculogenesis and angiogenesis along with the cardiomyocyte differentiation, we added combinations of 50 ng/ml VEGF-165 (VEGF) (Days 5, 7, 9, 11, 13) (100-20, PeproTech); 5 ng/ml FGF-2 (FGF2) (Days 7, 9, 11, 13) (100-18B, PeproTech); 10 uM SB431542 (SB) (Days 7, 9, or 11) ([…], Selleck Chemicals); 50 ng/ml Angiopoietin-2 (ANG2) (Days 5 and 7) (130-07, PeproTech); 50 ng/ml Angiopoietin-1 (ANG1) (Days 9 and 11) (130-06, PeproTech); and select components of the VascuLife® VEGF LifeFactors® Kit (Aghajanian et al., 2016) (LS-1020, Lifeline Cell Technology) (Days 5, 7, 9, 11, and 13) (5 ng/ml EGF, 15 ng/ml IGF-1, 50 μg/mL ascorbic acid, 0.75 U/mL heparin sulfate, […]). On Days 7-16, to simultaneously induce smooth muscle cell differentiation with cardiomyocyte and endothelial cell differentiation, we added 2.5 or 10 ng/ml PDGF-BB (PDGFBB) (Days 7, 9, 11, 13) (100-14B, PeproTech) and 0.5 or 2 ng/ml TGF-β1 (TGFβ) (Days 7, 9, 11, 13) (100-21C, PeproTech). To increase throughput, screening time-lapse microscopy was performed with the Cytation 5 Cell Imaging Multi-Mode Reader (BioTek). Five (5) forty-eight (48)-well plates (204 out of 240 wells) were imaged over the differentiation time-period. The plates contained a single 2 mm circular micropattern of undifferentiated hESC-3R cells in the center of each well subjected to thirty-four (34) differentiation conditions, with nominally 4-6 replicates per condition, imaged at six (6) timepoints (Days 3, 5, 8, 10, 12, and 16 (D3-D16)). After all raw images were acquired, image analysis was performed with Gen5 v3.05 software (BioTek). Images in each channel and each 4×4 array were stitched to create a single mosaic image; 4728 mosaics were created, and each mosaic image was downsized by 25%. Next, image processing of each mosaic was performed to reduce background independently in each channel. Finally, for each channel, thresholding was performed on fluorescence intensity along with minimum and maximum object size to calculate the total Phase, CFP, GFP, and mOrange total fluorescence area in each well for each condition at each timepoint. Each mosaic image was computationally masked by a circular “plug” to eliminate fluorescence artifact created by well edges. For each condition, values for replicate samples were summed, and the mean and standard deviation were calculated.

[4] = test system: hESC-3R micropatterns; test: CHIR concentrations and VEGF addition on CM and EC co-differentiation over 14 days; format: cell-based, human; details: day 14
[5] = test system: cVO EC formation; details: for time course of detrimental effect on EC formation (regression coefficients): multiple linear regression fit, 16 days; for effect on vascularization of cVOs: pathway inhibitors, summary; for EC location within cVO: day 16
[6] = test system: Controls (baseline cardiomyocyte differentiation); test: Beat rate with isoproterenol treatment, Controls; format: cell-based, human; details: isoproterenol 0, 1, and 10 uM; n=15
Source text: Baseline Cardiomyocyte (CM) Differentiation. For baseline cardiomyocyte (CM) differentiation (Control group), hPSCs were transferred to Matrigel-coated non-micropatterned and micropatterned surfaces as described above and differentiated in RPMI-1640 media (61870, Thermo Fisher Scientific) supplemented with B27 without insulin (A1895601, Gibco/Thermo Fisher Scientific). Our baseline differentiation method was based on a small molecule-based monolayer method (Lian et al., 2012; Burridge et al., 2014). Briefly, on the first day (Day 0) of differentiation, basal medium was supplemented with 4, 5, or 6 μM CHIR99021 (CHIR) (S2924, Selleck Chemicals) and 5 ng/mL FGF-2 (FGF2) (100-18B, PeproTech). On Day 2, the medium was replaced with basal medium containing B27 without insulin. […] We assessed the contractility of Control and cVO groups in a similar manner as we have previously described. Contraction of beating CMs within the micropatterns was recorded with high-resolution motion capture tracking (75 fps) using the SI8000 Live Cell Motion Imaging System (Sony Corporation). […] Functional parameters were assessed from the averaged contraction-relaxation waveforms from 10 sec recordings, using the S[…] […] The software was used to detect motion vectors and quantify beating rate, contraction velocity, relaxation velocity, and contraction-relaxation peak interval of cVOs.

[7] = test system: cVOs; test: Beat rate with isoproterenol treatment, cVOs; format: cell-based, human; details: isoproterenol 0, 1, and 10 uM; n=16
Source text: Cardiac Vascularized Organoid (cVO) Differentiation. See FIG. 3C, FIG. 10H-I, and Table 1 for an overview of our thirty-four (34) cardiovascular (CV) differentiation screening conditions to produce cVOs. The Control groups utilized only CHIR, FGF2, and IWR. To begin, hPSCs suspended in single cells were transferred to Matrigel-coated non-micropatterned or micropatterned surfaces as described above and differentiated in RPMI-1640 media (61870, Thermo Fisher Scientific) supplemented with B27 without insulin (A1895601, Thermo Fisher Scientific) (RB-I). The CV differentiation was based on the baseline differentiation described previously to promote CM differentiation and contained several additional small molecules and growth factors to promote simultaneous endothelial and smooth muscle cell co-differentiation. […] We assessed the contractility of Control and cVO groups in a similar manner as we have previously described. Contraction of beating CMs within the micropatterns was recorded with high-resolution motion capture tracking (75 fps) using the SI8000 Live Cell Motion Imaging System (Sony Corporation). […] Functional parameters were assessed from the averaged contraction-relaxation waveforms from 10 sec recordings, using the S[…] […] The software was used to detect motion vectors and quantify beating rate, contraction velocity, relaxation velocity, and contraction-relaxation peak interval of cVOs.

[8] = CHIR 4 vs 5 uM for each condition, day 12

`Cc1cnc(-c2cnc(NCCNc3ccc(C#N)cn3)nc2-c2ccc(Cl)cc2Cl)[nH]1` [CHIR, 6-[[2-[[4-(2,4-Dichlorophenyl)-5-(5-methyl-1H-imidazol-2-yl)-2-pyrimidinyl]amino]ethyl]amino]-3-pyridinecarbonitrile] was tested, and the “CHIR concentration giving the most CMs and ECs” value [1] was 7.0 µM, the “germ layer formation in micropatterned RUES-GLR hESCs” value [2] was “central BRA+ mesodermal area was surrounded by a SOX17+ endodermal ring and no SOX2 ectodermal expression; also recorded: BRA+ mesodermal central area surrounded by a SOX17+ endodermal ring, with no SOX2 ectodermal expression” and the “CHIR concentration giving the most CMs, ECs, and SMCs” value ([3]; 34 screening conditions, CHIR 4 uM vs 5 uM) was 5 µM. The “CHIR concentration giving the most CMs (GFP total fluorescence area)” value [3, 8] was 5 µM, the “CHIR concentration giving the most ECs (mOr total fluorescence area)” value [3, 8] was 5 µM and the “CHIR concentration giving the most SMCs (CFP total fluorescence area)” value [3, 8] was 5 µM. For the same molecule, the “CHIR concentration giving the most CMs” value ([4]; CHIR+FGF2+IWR (Control), CHIR 3, 4, and 5 uM) was 5 µM and the “CHIR concentration giving the most CMs and ECs” value ([4]; CHIR+FGF2+IWR+VEGF 50 ng/ml) was 5 µM.

`C[C@H](NC(=O)Cc1cc(F)cc(F)c1)C(=O)N[C@H](C(=O)OC(C)(C)C)c1ccccc1` [DAPT] was tested, and the “difference in cVO EC formation between concentrations” value (“difference” for short) ([5]; DAPT 1 vs 10 uM) was “no significant (ns) difference”, the “time course of detrimental effect on EC formation (regression coefficients)” value [5] was “decays over time” and the “effect on vascularization of cVOs” value [5] was “general disruptive effects on vascularization”.

`Cl.Cl.c1cc(-c2cnn3cc(-c4ccc(OCCN5CCCCC5)cc4)cnc23)ccn1` [Dorsomorphin, 6-[4-[2-(1-Piperidinyl)ethoxy]phenyl]-3-(4-pyridinyl)-pyrazolo[1,5-a]pyrimidine dihydrochloride] was tested, and the “difference” value ([5]; Dorsomorphin 0.1 vs 1.0 uM) was “no significant (ns) difference”, the “time course of detrimental effect on EC formation (regression coefficients)” value [5] was “exponentially increases” and the “effect on vascularization of cVOs” value [5] was “general disruptive effects on vascularization”.

With `CC(C)NCC(O)c1ccc(O)c(O)c1` (stereo not shown) [isoproterenol] the “Beat rate of Controls” value [6] was “significantly increased; also recorded: increases” and the “Beat rate of cVOs” value [7] was “significantly increased; also recorded: increases”.

Angiostatin was tested, and the “EC location within cVO” value ([5]; Angiostatin 0.1 ug/mL) was “ECs congregated in the center area of starting micropatterns”, the “EC location within cVO” value ([5]; Angiostatin 1.0 ug/mL) was “ECs congregated at the periphery of starting micropatterns” and the “difference” value ([5]; Angiostatin 0.1 vs 1.0 ug/mL) was “no significant (ns) difference”. The “effect on vascularization of cVOs” value [5] was “general disruptive effects on vascularization”.

With VEGF the “EC formation (mOr) compared to Control, FGF2 alone and SB alone” value ([3]; VEGF alone, 50 ng/ml, day 12) was “most ECs” and the “effect on CM formation (GFP)” value ([3]; VEGF alone, 50 ng/ml, day 12) was “no statistical (ns) effect”.
